Key:
[1] = test system: S. aureus MRSA (DSM 11822, ICB 25701); experiment: microbe, parasite or virus in culture; assay type: cell-based, methicillin resistant S. aureus; conditions: n = 3, TSY; for MIC MRSA / EC50: mean ± standard error; for MIC MRSA / MIC MRSA (value in brackets): 22 h; for EC50: read-out: EC50 MRSA
Method: (§1) The antibacterial effect of the silver NHC complexes and selected ligands was evaluated in two Gram-positive [Enterococcus faecium, methicillin resistant S. aureus, (MRSA)] and in four Gram-negative (Acinetobacter baumannii, Escherichia coli, Klebsiella pneumoniae, and Pseudomonas aeruginosa) pathogenic bacterial strains using broth microdilution assays. The resulting minimal inhibitory concentrations (MICs, Table 2) and EC50 (Table S6) were determined by a curve fitting procedure. Silver nitrate (AgNO3), SSD, and various antibiotics were used as references.
The importance of the culture medium used in antibacterial assays has been pointed out for antibiotics and in particular for silver.[53]−[55] In our recent studies, tryptic soy yeast (TSY) broth has been used for growing Gram-positive bacteria. Two components thereof, tryptone and yeast extract, have been reported to affect the antibacterial activity of silver nitrate.[55] Moreover, such an effect was also observed for other media containing at least one of those components.[11],[53] […] Silver nitrate served as a reference, and three different growth media were studied, namely, Müller-Hinton Broth (MHB, commonly used for Gram-negative bacteria), TSY broth (commonly used for Gram-positive bacteria), and DMEM supplemented with 10% FCS (commonly used for growth of mammalian and human cells).
(§2) The following strains of ESKAPE panel were utilized and maintained at 37 °C in MHB (21 g/L Müller Hinton broth, pH 7.4) or TSY (30 g/L trypticase soy broth, 3 g/L yeast extract, pH 7.0–7.2) media: A. baumannii (DSM 30007, ATCC 19606), E. coli (DSM1116, ATCC 9637), K. pneumoniae (DSM 11678, ATCC33495), P. aeruginosa PA7 (DSM 24068) in MHB; E. faecium (DSM 20477, ATCC 19434), and S. aureus MRSA (DSM 11822, ICB 25701) in TSY. MIC values were determined following a standardized protocol in broth microdilution assays. The compounds and reference substances (AgNO3 and SSD) were serially diluted from 64 to 1 μg/mL. Starting inocula of 2–8 × 10^5 CFU/mL in MHB or TSY media at 37 °C were used, and serial dilutions were carried out in 96-well microtiter plates in duplicate. After incubation of the plates for 22 h at 37 °C, the absorbance at 600 nm was measured using The Spark multimode microplate reader (Tecan Trading AG). The MIC values for the tested compounds were determined in three independent experiments and presented in μM with standard errors and also in μg/mL. Amikacin (P. aeruginosa), linezolid (S. aureus), and ciprofloxacin (all other strains) served as positive controls. The MIC and EC50 values were determined by curve fitting with Sigma Plot. To determine the effect of the culture medium on the activity of silver compounds, the assay was performed using MHB, TSY, or DMEM (Gibco). To observe the effect of individual components of TSY medium, antibacterial tests were performed using MHB with addition of tryptone (17 g/L) or yeast extract (3 g/L, both were purchased from Sigma).

[2] = test system: P. aeruginosa PA7 (DSM 24068); experiment: microbe, parasite or virus in culture; assay type: cell-based, Pseudomonas aeruginosa; conditions: n = 3, MHB; for MIC P. aeruginosa / EC50: mean ± standard error; for MIC P. aeruginosa / MIC P. aeruginosa (value in brackets): 22 h; for EC50: read-out: EC50 P. aeruginosa
Method: as §1, §2

[3] = test system: K. pneumoniae (DSM 11678, ATCC33495); experiment: Broth microdilution antibacterial assay; assay type: cell-based, Klebsiella pneumoniae; conditions: n = 3, MHB; for MIC K. pneumoniae / EC50: mean ± standard error; for MIC K. pneumoniae / MIC K. pneumoniae (value in brackets): 22 h; for EC50: read-out: EC50 K. pneumoniae
Method: as §1, §2

[4] = test system: E. coli (DSM1116, ATCC 9637); experiment: microbe, parasite or virus in culture; assay type: cell-based, Escherichia coli; conditions: n = 3, MHB; for EC50 / MIC E. coli: mean ± standard error; for MIC E. coli / MIC E. coli (value in brackets): 22 h
Method: as §1, §2

[5] = test system: P. aeruginosa (PA 14) biofilm; experiment: Inhibition of biofilm formation, crystal violet staining; assay type: cell-based, Pseudomonas aeruginosa; conditions: for smallest active concentration for biofilm inhibition: concentration at which the % inhibition was found; for biofilm inhibition: ± SD, n = 4, at the respective smallest active concentration, 24 h
Text: Silver and its complexes can strongly affect the growth of biofilms.[56]−[58] In view of the promising activity against Gram-negative bacteria as mentioned above, we evaluated the inhibiting effect of the silver complexes on biofilm production by P. aeruginosa by a method based on crystal violet staining (Table 4 and Figure S14). Complexes 3a–c and 4a–c were selected for the test based on the results of solubility, stability, and antibacterial screening. […] The lower activity of 3c might be explained by its lower kinetic solubility in the aqueous environment (see Figure 4).
The antibiofilm activity was determined according to a literature method.[73] A 1 mL aliquot of P. aeruginosa (PA 14) was taken from −20 °C stock, incubated in 25 mL LB medium (Luria–Bertani Broth) in a 250 mL flask, and kept at 37 °C at 100 rpm overnight. The optical density at 600 nm (OD600) of the culture solution was adjusted to match the turbidity of a 0.1 McFarland standard in M63 medium.[74] Selected compounds were mixed with 150 μL of bacterial solution in U-bottom 96 well plates to the final respective concentrations (25–0.2 μg/mL). The plates were further incubated at 37 °C for 24 h while shaking at 150 rpm. Afterward, the plates were rinsed once with 150 μL of PBS buffer, and the biofilms were stained using 150 μL of crystal violet (0.1%) staining at room temperature for 15 min and then rinsed once with PBS buffer. After rinsing, 150 μL of ethanol (95%) was added, and the absorbance was quantified using a plate reader (Synergy 2, BioTek, Santa Clara, USA) at 550 nm. The resulting antibiofilm activity is presented as percentage of inhibition at the respective smallest active concentration in μM with standard deviation (SD) of two repeats with duplicates. Myxovalargin A and DMSO (2.5%) were used as the positive and negative controls, respectively.

[6] = test system: A. baumannii (DSM 30007, ATCC 19606); experiment: Broth microdilution antibacterial assay; assay type: cell-based, Acinetobacter baumannii; conditions: n = 3, MHB; for MIC A. baumannii / EC50: mean ± standard error; for MIC A. baumannii / MIC A. baumannii (value in brackets): 22 h; for EC50: read-out: EC50 A. baumannii
Method: as §1, §2

[7] = test system: E. faecium (DSM 20477, ATCC 19434); experiment: Broth microdilution antibacterial assay; assay type: cell-based, Enterococcus faecium; conditions: n = 3, TSY; for MIC E. faecium / EC50: mean ± standard error; for MIC E. faecium / MIC E. faecium (value in brackets): 22 h; for EC50: read-out: EC50 E. faecium
Method: as §1, §2

[8] = Conductometry: molar conductivity of silver complexes in DMSO; assay type: physicochemical; conditions: 1.0 mM in DMSO, calculated as monocarbene (NHC)AgX
Method: Since both the neutral monocarbene and the ionic biscarbene form of the complexes may exist in various proportions in the solution, conductometry studies were performed to reveal the dominant structure. The molar conductivity of 1.0 mM solutions of each complex in DMSO was determined after different periods up to 24 h using AgNO3 as 1:1 electrolyte reference (see Table 1). According to the literature, the expected range of molar conductivity for 1:1 electrolytes in DMSO is 35–90 S cm^2 mol^–1.[45],[46]
Conductivity measurements were performed using an Apera Instruments EC9500 conductivity meter. Solutions (as indicated, otherwise 1.0 mM) of all compounds were prepared using freshly distilled DMSO with a specific electrical conductivity of ≤3 × 10^–8 S cm^–1. The conductivities were measured at 25 ± 2 °C immediately after complete dissolution and after 24 h.

[9] = test system: Caco-2 cells; conditions: read-out: Cytotoxicity IC50 Caco-2; 24 h, almost confluent cell layers, highest concentration 100 μM
Method: Besides the antimicrobial effects, the toxic effects of silver ions have to be considered.[10],[12] As a primary evaluation of the cell toxicity triggered by silver NHC complexes, almost confluent cell layers of CaCo-2 cells were grown and challenged for 24 h with the silver complexes and also with the silver reference compounds AgNO3 and SSD (see Figure 6).
Caco-2 cells were grown as almost confluent monolayers in 96-well plates. The complexes were dissolved in wells of 96-well plates as stock solutions in DMSO (0.2% v/v) diluted with DMEM cell culture medium, which was supplemented with 10% fetal calf serum and 50 mg/L gentamicin. The cell layers were incubated with the drug containing media for 24 h at 37 °C/5% CO2 in an incubator. The cell viability was determined using crystal violet (0.02%) staining and was calculated as percentage of an untreated control. Results were obtained in three independent experiments.

Molecule	MIC MRSA [1] [µM]	EC50 [1] [µM]	MIC MRSA (value in brackets) [1] [µg/mL]	MIC P. aeruginosa [2] [µM]	EC50 [2] [µM]	MIC P. aeruginosa (value in brackets) [2] [µg/mL]	MIC K. pneumoniae [3] [µM]	EC50 [3] [µM]	MIC K. pneumoniae (value in brackets) [3] [µg/mL]	EC50 [4] [µM]	MIC E. coli [4] [µM]	MIC E. coli (value in brackets) [4] [µg/mL]	MIC A. baumannii [6] [µM]	EC50 [6] [µM]	MIC A. baumannii (value in brackets) [6] [µg/mL]	MIC E. faecium [7] [µM]	EC50 [7] [µM]	MIC E. faecium (value in brackets) [7] [µg/mL]	Molar conductivity ΛM ([8]; 1 h after dissolution) [S cm^2 mol^–^1]	Molar conductivity ΛM ([8]; 24 h after dissolution) [S cm^2 mol^–^1]	further results
COCCn1[c]([Ag][Cl])[n+](Cc2ccccn2)c2ccccc21 [4a]	156 ± 0.0	85.7 ± 0.6	64	26.0 ± 6.5	9.6 ± 0.3	11	9.74 ± 0.0	5.2 ± 0.1	4	31.1 ± 1.8	39.0 ± 0.0	16	16.2 ± 3.2	1.9 ± 0.4	7	156 ± 0.0	123 ± 6.1	64	3.38	3.01	smallest active concentration for biofilm inhibition [5]: 7.6 µM; biofilm inhibition [5]: 71 ± 3%
myxovalargin A [reference compound]	–	–	–	–	–	–	–	–	–	–	–	–	–	–	–	–	–	–	–	–	smallest active concentration for biofilm inhibition [5]: 18.6 µM; biofilm inhibition [5]: 68 ± 0%
CCn1[c](=[Ag][I])n(Cc2ccccn2)c2ccccc21 [2c, Iodido (1-Ethyl-3-(pyridin-2-ylmethyl)-benzimidazol-2-ylidene) Silver(I)]	> 136	> 136	> 64	45.2 ± 11.3	14.2 ± 0.8	21	11.3 ± 2.8	5.9 ± 1.7	5	12.8 ± 1.1	16.9 ± 0.0	8	8.5 ± 0.0	2.9 ± 0.5	4	> 136	> 136	> 64	6.98	6.28	IC50 [9]: > 100 µM
Cn1[c](=[Ag][I])n(Cc2ccccn2)c2ccccc21 [1c, Iodido (1-Methyl-3-(pyridin-2-ylmethyl)-benzimidazol-2-ylidene) Silver(I)]	> 140	> 140	> 64	14.6 ± 2.9	5 ± 0.5	7	5.1 ± 1.9	2 ± 0.2	2	6.4 ± 1.1	11.6 ± 2.9	5	8.7 ± 0.0	4.1 ± 0.4	4	> 140	> 140	> 64	7.82	8.13	IC50 [9]: > 100 µM
COCCn1[c](=[Ag][Br])n(Cc2ccccn2)c2ccccc21 [4b, Bromido (1-(2-Methoxyethyl)-3-(pyridin-2-ylmethyl)-benzimidazol-2-ylidene) Silver(I)]	141 ± 0.0	78.3 ± 2	64	23.4 ± 5.9	8.6 ± 1.1	11	17.6 ± 0.0	9.8 ± 1	8	59.2 ± 4.3	70.3 ± 0.0	32	11.7 ± 2.9	2.1 ± 0.1	5	141 ± 0.0	120 ± 0.8	64	5.11	5.08	smallest active concentration for biofilm inhibition [5]: 6.8 µM; biofilm inhibition [5]: 70 ± 5%

Reference: PMC11091889, “Silver Organometallics that are Highly Potent Thioredoxin and Glutathione Reductase Inhibitors: Exploring the Correlations of Solution Chemistry with the Strong Antibacterial Effects” (ACS Infectious Diseases, 2024)
